Where two headings read alike, the source gives them in different places.
How the values were obtained:
Format in all cases: cell-based
Mycobacterium marinum [1] = assay: Infection assay: intracellular M. marinum growth (luminescence) in D. discoideum; conditions: for activity at 0.411523 µM / activity at 1.23457 µM / activity at 3.7037 µM / activity at 11.1111 µM / activity at 33.3333 µM / activity at 100 µM: 72 h; for activity at 0.411523 µM: conc 0.411522634 uM; for activity at 1.23457 µM: conc 1.234567901 uM; for activity at 3.7037 µM: conc 3.703703704 uM; for activity at 11.1111 µM: conc 11.11111111 uM; for activity at 33.3333 µM: conc 33.33333333 uM; for activity at 100 µM: conc 100 uM; for IC50: interpolated between the two concentrations closest to residual growth 0.5, top concentration 100 μM
Text: (§1) Since fractions were not weighed individually, the injection mass was used to calculate an average mass per fraction and thus a nominal mass concentration.

Dictyostelium discoideum = assay: Infection assay: growth of the host amoeba D. discoideum (fluorescence) in infection; conditions: for activity at 0.411523 µM / activity at 1.23457 µM / activity at 3.7037 µM / activity at 11.1111 µM / activity at 33.3333 µM / activity at 100 µM: 72 h; for IC50: read-out: IC50 Dd in infection (μM)
Text: as §1

Mycobacterium marinum [2] = assay: Anti-biotic assay: M. marinum growth in broth (luminescence); conditions: for activity at 0.411523 µM / activity at 1.23457 µM / activity at 3.7037 µM / activity at 11.1111 µM / activity at 33.3333 µM / activity at 100 µM: 72 h; for IC50: read-out: IC50 Mm in broth (μM)
Method: as §1
Plating bacteria and compounds or fractions was performed analogously to the infection assay described above. Bacteria growth was monitored with the Agilent BioTek H1 plate reader by recording luminescence at 32 °C.
The prepared plates were sealed and stored at 4 °C overnight. On the day of the experiment, nine 10 cm Petri dishes were infected (as described before) and grouped into three pools.

[3] = vehicle control set at 1, read-out: mean normalized residual growth, Mm in infection
[4] = vehicle control set at 1, read-out: median normalized residual growth, Mm in infection
[5] = read-out: mean normalized residual growth, Dd in infection
[6] = read-out: median normalized residual growth, Dd in infection
[7] = read-out: mean (normalised M. marinum growth, Mm in broth)
[8] = read-out: median (normalised M. marinum growth, Mm in broth)

| SMILES | activity at 0.411523 µM (Mycobacterium marinum [1]; [3]) [%] | activity at 0.411523 µM (Mycobacterium marinum [1]; [4]) [%] | activity at 1.23457 µM (Mycobacterium marinum [1]; [3]) [%] | activity at 1.23457 µM (Mycobacterium marinum [1]; [4]) [%] | activity at 3.7037 µM (Mycobacterium marinum [1]; [3]) [%] | activity at 3.7037 µM (Mycobacterium marinum [1]; [4]) [%] | activity at 11.1111 µM (Mycobacterium marinum [1]; [3]) [%] | activity at 11.1111 µM (Mycobacterium marinum [1]; [4]) [%] | activity at 33.3333 µM (Mycobacterium marinum [1]; [3]) [%] | activity at 33.3333 µM (Mycobacterium marinum [1]; [4]) [%] | activity at 100 µM (Mycobacterium marinum [1]; [3]) [%] | activity at 100 µM (Mycobacterium marinum [1]; [4]) [%] | IC50 (Mycobacterium marinum [1]) [µM] | activity at 0.411523 µM (Dictyostelium discoideum; [5]) [%] | activity at 1.23457 µM (Dictyostelium discoideum; [5]) [%] | activity at 3.7037 µM (Dictyostelium discoideum; [5]) [%] | activity at 11.1111 µM (Dictyostelium discoideum; [5]) [%] | activity at 33.3333 µM (Dictyostelium discoideum; [5]) [%] | activity at 100 µM (Dictyostelium discoideum; [5]) [%] | activity at 0.411523 µM (Dictyostelium discoideum; [6]) [%] | also measured |
| --- | --- | --- | --- | --- | --- | --- | --- | --- | --- | --- | --- | --- | --- | --- | --- | --- | --- | --- | --- | --- | --- |
| Oc1ccc(/C=C/c2cc(O)c3c(c2)O[C@H](c2ccc(O)cc2)[C@H]3c2cc(O)c3c(c2)O[C@H](c2ccc(O)cc2)[C@H]3c2cc(O)c3c(c2)O[C@H](c2ccc(O)cc2O)[C@H]3c2cc(O)cc(O)c2)cc1 [Compound 7, Macrostachyol A] | 139 | 130 | 158 | 153 | 163 | 154 | 151 | 157 | 80.7 | 76 | 33.4 | 37.5 | 66.7 | 143 | 146 | 119 | 111 | 63 | -92.9 | 91.3 | activity at 1.23457 µM (Dictyostelium discoideum; [6]): 90.3%; activity at 3.7037 µM (Dictyostelium discoideum; [6]): 92%; activity at 11.1111 µM (Dictyostelium discoideum; [6]): 91%; activity at 33.3333 µM (Dictyostelium discoideum; [6]): 82.1%; activity at 100 µM (Dictyostelium discoideum; [6]): 3.73%; IC50 (Dictyostelium discoideum): 66.7 µM; activity at 0.411523 µM (Mycobacterium marinum [2]; [7]): 118%; activity at 1.23457 µM (Mycobacterium marinum [2]; [7]): 118%; activity at 3.7037 µM (Mycobacterium marinum [2]; [7]): 114%; activity at 11.1111 µM (Mycobacterium marinum [2]; [7]): 106%; activity at 33.3333 µM (Mycobacterium marinum [2]; [7]): 112%; activity at 100 µM (Mycobacterium marinum [2]; [7]): 107%; activity at 0.411523 µM (Mycobacterium marinum [2]; [8]): 117%; activity at 1.23457 µM (Mycobacterium marinum [2]; [8]): 123%; activity at 3.7037 µM (Mycobacterium marinum [2]; [8]): 116%; activity at 11.1111 µM (Mycobacterium marinum [2]; [8]): 105%; activity at 33.3333 µM (Mycobacterium marinum [2]; [8]): 114%; activity at 100 µM (Mycobacterium marinum [2]; [8]): 109%; IC50 (Mycobacterium marinum [2]): > 100 µM |
| Oc1ccc(/C=C/c2cc(O)c3c(c2)O[C@@H](c2ccc(O)cc2)[C@@H]3c2cc(O)c3c(c2)O[C@H](c2ccc(O)cc2O)[C@H]3c2cc(O)cc(O)c2)cc1 [Compound 5, (−)-Latifolol] | 116 | 112 | 160 | 158 | 192 | 178 | 136 | 125 | 81.5 | 81.6 | 2.94 | 7.57 | 66.7 | 112 | 85.8 | 91.4 | 75.1 | 61 | -3.13 | 93.8 | activity at 1.23457 µM (Dictyostelium discoideum; [6]): 81.7%; activity at 3.7037 µM (Dictyostelium discoideum; [6]): 79.8%; activity at 11.1111 µM (Dictyostelium discoideum; [6]): 74.5%; activity at 33.3333 µM (Dictyostelium discoideum; [6]): 69%; activity at 100 µM (Dictyostelium discoideum; [6]): 32.8%; IC50 (Dictyostelium discoideum): 66.7 µM; activity at 0.411523 µM (Mycobacterium marinum [2]; [7]): 107%; activity at 1.23457 µM (Mycobacterium marinum [2]; [7]): 108%; activity at 3.7037 µM (Mycobacterium marinum [2]; [7]): 104%; activity at 11.1111 µM (Mycobacterium marinum [2]; [7]): 114%; activity at 33.3333 µM (Mycobacterium marinum [2]; [7]): 95.8%; activity at 100 µM (Mycobacterium marinum [2]; [7]): 91%; activity at 0.411523 µM (Mycobacterium marinum [2]; [8]): 106%; activity at 1.23457 µM (Mycobacterium marinum [2]; [8]): 108%; activity at 3.7037 µM (Mycobacterium marinum [2]; [8]): 107%; activity at 11.1111 µM (Mycobacterium marinum [2]; [8]): 116%; activity at 33.3333 µM (Mycobacterium marinum [2]; [8]): 102%; activity at 100 µM (Mycobacterium marinum [2]; [8]): 102%; IC50 (Mycobacterium marinum [2]): > 100 µM |

From PMC12015462, “Prioritization of novel anti-infective stilbene derivatives by combining metabolomic data organization and a stringent 3R-infection model in a knowledge graph” (RSC Advances, 2025)
